Results published in patent publication US10301270B2, “Compositions and methods for quadricyclane modification of biomolecules” (The Regents of the University of California, priority 2011, dated 2019).
“Also recorded” adds a separate entry of the source. Like-named read-outs stand apart in the source and are kept apart here.

Key:
Type in all cases: physicochemical
[1] = Prevention of photo-degradation of complex 3 by diethyldithiocarbamate (UV/Vis/NIR); conditions: 200 μM 3, 1.25 mM 5, 3:1 CH3CN/H2O, 20 h ambient light
Protocol: A solution containing 200 μM 3 and 0 (red) or 1.25 (green) mM 5 in 3:1 CH3CN/H2O was prepared and left in ambient light continually. A. UV/Vis/NIR spectra of the described solutions taken before being exposed to light. B. UV/Vis/NIR spectra of the described solutions taken after 20 h of exposure to light. The red line contains little absorbance due to the low solubility of 2 in acetonitrile. If 2 is reduced to the anionic state by cysteine (1.25 mM, blue line) solubility in acetonitrile is improved and evidence of photodegradation can be seen. The diethyldithiocarbamate treated sample remains unaltered after exposure to light indicating no photodegradation occurred.

[2] = Stability of 7-acetoxy quadricyclane 1 in PBS (NMR); conditions: room temperature, more than 2 months (NMR taken 2.5 months after preparation, CD3CN/deuterated PBS)
Protocol: 7-acetoxy quadricyclane (1, 2 mg) was dissolved in 0.4 mL of CD3CN. To this solution, 0.4 mL of deuterated PBS was added. The NMR spectrum above was taken 2.5 months after the described solution was prepared.

[3] = Stability of quadricyclane 1 to cysteine and other biological nucleophiles, BSA and cell culture media
Protocol: 7-acetoxy quadricyclane (1, 2 mg) was dissolved in 0.4 mL of CD3CN. To this solution, 0.4 mL of deuterated PBS and 3 mg of cysteine were added. The NMR spectrum above was taken 2.5 months after the described solution was prepared.

[4] = Photo-lability of complex 3 in ambient light (NMR, UV/Vis/NIR); conditions: CDCl3 solution in an NMR tube
Protocol: Complex 3 (2.2 mg) was dissolved in CDCl3 (˜0.75 mL) and placed in an NMR tube on the bench continually exposed to ambient light. NMR spectra were periodically obtained. The asterisks indicate the chemical shifts for 7-acetoxy norbornadiene (4). At the 36 h time point, there is a 1:1.1 ratio of 3:4 as judged by integration of the olefin peaks.
Using an NMR assay degradation of 3 over the first few hours is not evident. However, using UV/Vis/NIR spectroscopy, which has greater sensitivity than NMR, the formation of 2 from 3 is evident at early timepoints. A solution of 3 was prepared in CH3CN and left in ambient light. A UV/Vis/NIR spectrum was obtained every 15 min. The NIR absorption band at 855 nm characteristic of 2 is growing in, while the small hump centered at ˜400 nm characteristic of […] is decreasing. The absorption band at 350 nm is also increasing in intensity.

[5] = Solubility and reactivity of bis(dithiobenzil)nickel(II) 2

CCN(CC)C(=S)S [Compound 5, diethyldithiocarbamate]
Effect on photo-degradation of complex 3 [1]: prevented

CC(=O)OC1C2C3C2C2C1C32 (stereo not drawn) [Compound 1, 7-acetoxy Quadricyclane]
Stability in phosphate buffered saline (PBS, pH 7.4) [2]: stable; also recorded: no degradation observed
Stability in the presence of bovine serum albumin (BSA) and cell culture media ([3]; conditions emulating metabolic labeling experiments): stable
Reactivity with sugars, oxidants and free amino acids, most notably cysteine ([3]; cysteine: CD3CN/deuterated PBS, NMR after 2.5 months): stable; also recorded: unreactive

CC(=O)OC1C2C=CC1C1C2[S]2=[Ni]3(=[S]1C(c1ccccc1)=C(c1ccccc1)[S]3)[S]C(c1ccccc1)=C2c1ccccc1 (stereo not drawn) [Complex 3]
half-life at 2.9 mg/mL ([4]; NMR, read-out: Calculated half-life of photo-degradation based on all integration data (converted)): 2090 min
half-life at 2.9 mg/mL ([4]; read-out: Half-life of the light-induced reversion (converted)): ~2100 min

S=C(C(=S)c1ccccc1)c1ccccc1.S=C(C(=S)c1ccccc1)c1ccccc1.[Ni] [Compound 2, Bis(dithiobenzil)nickel(II)]
Solubility in acetonitrile ([5]; acetonitrile): low
Reactivity with a variety of nucleophiles ([5]; in dichloromethane): unreactive
Solubility in polar solvents ([5]; polar solvents): limited
